The data set can be described thus: DSSTox (CPDBAS) Carcinogenic Potency Database Summary MultiCellCall Results. Conditions: animal carcinogenicity bioassays, multi-cell call summary. An excerpt:
The Carcinogenic Potency Database (CPDB) is a unique and widely used international resource of the results of over 6500 chronic, long-term animal cancer tests on over 1500 chemical substances. The CPDB provides easy access to the bioassay literature, with qualitative and quantitative analyses of both positive and negative experiments that have been published over the past 50 years in the general literature and by the National Cancer Institute/National Toxicology Program. The CPDB standardizes the diverse literature of cancer bioassays that vary widely in protocol, histopathological examination and nomenclature, and in the published author's choices of what information to provide in their papers. Results are reported in the CPDB for tests in rats, mice, hamsters, dogs, and nonhuman primates, and are based on the most positive result among all experiments for each sex-species. The DSSTox CPDBAS (all species) file incorporates data from the CPDB Summary Tables for the full list of over 1500 chemical substances tested in at least one species. A summary MultiCellCall, based on experimental bioassay results of one or more species, is provided in the DSSTox CPDBAS file (see Source URL) for more than 1150 chemical substances.
Associated TD50 values and tumor site details for the relevant species/sex experiment supporting the overall CPDBAS MultiSiteCall are provided in the full DSSTox CPDBAS file (see Comment) and the corresponding CPDBAS Species Bioassay in PubChem. ActivityScore is computed as follows: multispecies=50, multisex=30, multisite=20, with combination scores computed as sums of these values, e.g. multispecies+multisite=70.

35 compounds from PubChem BioAssay AID1205 (EPA DSSTox, 2008) can be followed below.

Calls of active or inactive are those of the source.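 Rule for the calls: active = tumour findings in long-term animal cancer tests in more than one sex, species or organ; inactive = no tumour finding and more than one negative test.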

For `O=CNNc1nc(-c2ccc([N+](=O)[O-])o2)cs1`, the outcome was “active; multisite active; multisex active; multispecies active”.

Consider `Cl`, for which the outcome was “inactive; multisex inactive”.

Consider `Cn1c(=O)c2c(ncn2C)n(C)c1=O`, for which the outcome is “inactive; multisex inactive; multispecies inactive”.

Consider `C[C@H]1CCCC(=O)CCC/C=C/c2cc(O)cc(O)c2C(=O)O1`, for which the outcome was “active; multisite active; multisex active”.

With `CN(C)Nc1nc(-c2ccc([N+](=O)[O-])o2)cs1`, the outcome was “active; multisite active”.

Consider `COC(=O)C1=C(C)NC(C)=C(C(=O)OCC(C)(C)CN(C)Cc2ccccc2)C1c1cc([N+](=O)[O-])ccc1F` (stereo not given), for which the outcome is “inactive; multisex inactive”.

With `COc1ccc([N+](=O)[O-])cc1N`, the outcome was “active; multisite active; multisex active; multispecies active”.

With `FC(F)OC(F)(F)C(F)Cl` (stereo not given), the outcome was “inactive; multisex inactive”.

`Nc1ccc(Cl)cc1N`: the outcome was “active; multisite active; multisex active; multispecies active”.

Turning to `O=C1c2ccccc2CN2C(=O)c3ccccc3CN12`, the outcome was “active; multisite active; multisex active”.

Take `O=Cc1ccco1`: the outcome is “active; multisex active; multispecies active”.

As to `CCCCC(CC)COC(=O)COc1ccc(Cl)cc1Cl` (stereo not given), the outcome was “inactive; multisex inactive”.

In the case of `Clc1nc(Cl)nc(Nc2ccccc2Cl)n1`, the outcome is “inactive; multisex inactive; multispecies inactive”.

`CN(C)N=O`: the outcome is “active; multisite active; multisex active; multispecies active”.

Take `CN(C)c1ccc(N=NS(=O)(=O)O)cc1`: the outcome is “inactive; multisex inactive; multispecies inactive”.

For the compound `O=NN1CCCCC1`, the outcome is “active; multisite active; multisex active; multispecies active”.

As for `NCCS(=O)(=O)O`, the outcome is “inactive; multisex inactive”.

On to `C=CCOc1ccc(CC(=O)O)cc1Cl`, for which the outcome was “inactive; multisex inactive”.

As to `CC(Cl)(Cl)Cl`, the outcome is “inactive; multisex inactive; multispecies inactive”.

Turning to `ClCc1ccccn1`, the outcome was “inactive; multisex inactive; multispecies inactive”.

Regarding `Clc1ccc(C(c2ccccc2Cl)C(Cl)Cl)cc1` (stereo not given), the outcome is “inactive; multisex inactive”.

Consider `Nc1ccc2ccccc2c1`, for which the outcome is “active; multisite active; multisex active; multispecies active”.

Take `Cc1cc(O)cc(C)c1N(C)C`: the outcome is “inactive; multisex inactive”.

For the compound `CC(=O)C(N=Nc1ccc(Cl)cc1Cl)C(=O)Nc1ccc(-c2ccc(NC(=O)C(N=Nc3ccc(Cl)cc3Cl)C(C)=O)c(C)c2)cc1C` (stereo not given), the outcome was “inactive; multispecies inactive”.

As for `Cc1ccc(N)cc1Cl`, the outcome was “inactive; multisex inactive; multispecies inactive”.

For `N#CS`, the outcome was “inactive; multisex inactive”.

Regarding `C[C@]12CC[C@@H]3c4ccc(OC(=O)Cc5ccc(N(CCCl)CCCl)cc5)cc4CC[C@H]3[C@@H]1CC[C@@H]2OC(=O)Cc1ccc(N(CCCl)CCCl)cc1`, the outcome is “active; multisite active; multisex active”.

With `CCCCN(CC)C(=O)SCCC`, the outcome is “inactive; multisex inactive”.

For the compound `CCN=c1cc2oc3cc(NCC)c(C)cc3c(-c3ccccc3C(=O)OCC)c-2cc1C`, the outcome was “inactive; multisex inactive; multispecies inactive”.

As for `c1ccccc1`, the outcome is “active; multisite active; multisex active; multispecies active”.

As for `O=CNc1nc(-c2ccc([N+](=O)[O-])o2)cs1`, the outcome was “active; multisite active; multisex active; multispecies active”.

On to `[Cl-].[Cl-].[Sn+2]`, for which the outcome was “inactive; multisex inactive; multispecies inactive”.

In the case of `S=c1nc[nH]c2nc[nH]c12`, the outcome is “inactive; multisex inactive”.

Consider `O=NN1CC(=O)NC1=O`, for which the outcome is “active; multisite active; multisex active”.

Turning to `C=COC(N)=O`, the outcome was “active; multisite active; multisex active”.
